From patent US8846636B2, “Nucleoside analogues with quaternary carbon stereogenic centers and methods of use” (LCB Pharma Inc., priority 2008, dated 2014) come the findings set out here.

Common to all, as to type: cell-based
The test system of one experiment is BxPC-3. In words: MTT cell proliferation assay, BxPC-3. Particulars: BxPC-3 cell line (pancreas). As to the method: (§1) The antiviral and antitumor activities of the compounds of the invention were evaluated by a cellular proliferation assay. The MTT [3-(4,5-dimethylthiazol-2-yl)-2,5-diphenyltetrazolium bromide] assay, first described by Mosmann (Mosmann T., “Rapid colorimetric assay for cellular growth and survival: application to proliferation and cytotoxicity assays,” J. Immunol. Methods 1983 Dec. 16; 65(1-2):55-63, and incorporated by reference in its entirety) is based on the ability of a mitochondrial dehydrogenase enzyme from viable cells to cleave the tetrazolium rings of the pale yellow MTT. The cleavage reaction form a dark blue formazan crystals which is largely impermeable to cell membranes and accumulation within healthy cells. Solubilisation of the cells by the addition of a detergent liberates and solubilizes the crystals. The number of surviving cells is directly proportional to the level of the formazan product created. The color can then be quantified using a simple colorimetric assay. The results can be read on a multiwell scanning spectrophotometer (ELISA reader).
(§2) In Tables 1 and 2, IC50 values are presented for various cell lines in micromolar units (μm), “Gemci” is Gemcitabine, and “5-FU” is 5-fluorouracil.
(Tetrazolium assays rely on reduction of a dye to a coloured formazan, in cell work by metabolically active cells.)

A further experiment concerns PFSK-1. Description: MTT cell proliferation assay, PFSK-1. Particulars: PFSK-1 cell line (brain). How it is done:
as §1, §2

For another experiment, the system named is ZR-75-1. Description: MTT cell proliferation assay, ZR-75-1. Particulars: ZR-75-1 cell line (mammary gland; breast). As to the method: as §1, §2
For a further experiment, the system named is HCC1143. In words: MTT cell proliferation assay, HCC1143. The note with it: HCC1143 cell line (mammary gland; breast). As to the method: as §1, §2
For the next experiment, the system named is HL-60. Description: MTT cell proliferation assay, HL-60. Particulars: HL-60 cell line (acute promyelocytic leukemia). How it is done:
as §1, §2

For the next experiment, the system named is 1A6. Description: MTT cell proliferation assay, 1A6. Particulars: 1A6 cell line (urinary bladder). As to the method: as §1, §2
The test system of another experiment is NCI H1395. Description: MTT cell proliferation assay, NCI H1395. As to the method:
as §1, §2

The subject of another experiment is OVCAR3. In words: MTT cell proliferation assay, OVCAR3. The note with it: OVCAR3 cell line (ovary). How it is done: as §1, §2
Another experiment relates to 786-O. In words: MTT cell proliferation assay, 786-O. The note with it: 786-O cell line (kidney). How it is done:
as §1, §2

Another experiment concerns DLD-1. Description: MTT cell proliferation assay, DLD-1. The note with it: DLD-1 cell line (colon). How it is done: as §1, §2
The next experiment deals with NCI H2052. In words: MTT cell proliferation assay, NCI H2052. The note with it: NCI H2052 cell line (tumor stage 4 derived from pleural effusion). How it is done:
as §1, §2

For the next experiment, the system named is MOLT-4. In words: MTT cell proliferation assay, MOLT-4. As to the method: as §1, §2
The subject of another experiment is 22Rv1. In words: MTT cell proliferation assay, 22Rv1. Particulars: 22Rv1 cell line (prostate). As to the method: as §1, §2
A further experiment deals with HCT 116. Description: MTT cell proliferation assay, HCT 116. Particulars: HCT 116 cell line (colon). How it is done: as §1, §2
Another experiment has as its system Colo 829. Description: MTT cell proliferation assay, Colo 829. The note with it: Colo 829 cell line (skin). How it is done: as §1, §2
The test system of the next experiment is MCF7. In words: MTT cell proliferation assay, MCF7. The note with it: MCF7 cell line (mammary gland; breast). How it is done: as §1, §2
Setting [1] is: Homo sapiens, NCI-H1395, NCI H1395 cell line (lung).
[2] abbreviates: Homo sapiens, MOLT-4, MOLT-4 cell line (acute lymphoblastic leukemia).

On to `C[C@]1(C(=O)NN)[C@@H](CO)O[C@@H](n2cc(F)c(N)nc2=O)[C@@H]1O` [LCB-1085, (2S,3R,4R,5R)-5-(4-amino-5-fluoro-2-oxopyrimidin-1(2H)-yl)-4-hydroxy-2-(hydroxymethyl)-3-methyltetrahydrofuran-3-carbohydrazide], for which the IC50 in the experiment with BxPC-3 (Homo sapiens), in the experiment on PFSK-1 (Homo sapiens), with ZR-75-1 (Homo sapiens), in the experiment with HCC1143 (Homo sapiens), with HL-60 (Homo sapiens) and in the experiment on 1A6 was > 100 µM in each case. Also, the IC50 (as a rule, the midpoint of a concentration-inhibition curve) with NCI H1395 (setting [1]) is > 100 µM; with OVCAR3 (Homo sapiens, OVCAR-3), > 100 µM; with 786-O (Homo sapiens, 786-0), > 100 µM; in the experiment on DLD-1 (Homo sapiens), > 100 µM; in the experiment on NCI H2052 (Homo sapiens), > 100 µM; in the experiment with MOLT-4 (setting [2]), 80 µM. Moreover, the IC50 in the experiment with 22Rv1 (Homo sapiens), in the experiment with HCT 116 (Homo sapiens), with Colo 829 (Homo sapiens) and with MCF7 (Homo sapiens) was > 100 µM throughout.

With `C[C@@]1(CO)[C@@H](CO)O[C@@H](n2ccc(N)nc2=O)[C@@H]1O` [LCB-1095, 4-amino-1-((2R,3R,4S,5S)-3-hydroxy-4,5-bis(hydroxymethyl)-4-methyltetrahydrofuran-2-yl)pyrimidin-2(1H)-one], the IC50 in the experiment with BxPC-3 (Homo sapiens), in the experiment on PFSK-1 (Homo sapiens), in the experiment on ZR-75-1 (Homo sapiens), with HCC1143 (Homo sapiens), in the experiment with HL-60 (Homo sapiens) and in the experiment on 1A6 was > 500 µM throughout. In addition, the IC50 in the experiment with NCI H1395 (setting [1]) was > 500 µM; in the experiment with OVCAR3 (Homo sapiens, OVCAR-3), > 500 µM; in the experiment with 786-O (Homo sapiens, 786-0), > 500 µM; in the experiment with DLD-1 (Homo sapiens) it was > 500 µM; in the experiment on NCI H2052 (Homo sapiens), > 500 µM; in the experiment on MOLT-4 (setting [2]), > 500 µM. Moreover, the IC50 is > 500 µM with 22Rv1 (Homo sapiens), > 500 µM in the experiment with HCT 116 (Homo sapiens), 460 µM with Colo 829 (Homo sapiens) and 430 µM in the experiment on MCF7 (Homo sapiens).

Turning to `C[C@@]1(CO)[C@@H](CO)O[C@@H](n2cc(F)c(N)nc2=O)[C@@H]1O` [LCB-1096, 4-amino-5-fluoro-1-((2R,3R,4S,5S)-3-hydroxy-4,5-bis(hydroxymethyl)-4-methyltetrahydrofuran-2-yl)pyrimidin-2(1H)-one], the IC50 in the experiment with BxPC-3 (Homo sapiens), in the experiment on PFSK-1 (Homo sapiens), in the experiment with ZR-75-1 (Homo sapiens), with HCC1143 (Homo sapiens), with HL-60 (Homo sapiens) and in the experiment with 1A6 was > 500 µM in each case. For the same compound, the IC50 in the experiment with NCI H1395 (setting [1]) is > 500 µM; in the experiment on OVCAR3 (Homo sapiens, OVCAR-3), > 500 µM; in the experiment with 786-O (Homo sapiens, 786-0) it was > 500 µM; in the experiment on DLD-1 (Homo sapiens), > 500 µM; with NCI H2052 (Homo sapiens), > 500 µM; in the experiment with MOLT-4 (setting [2]), > 500 µM. Moreover, the IC50 in the experiment on 22Rv1 (Homo sapiens), in the experiment with HCT 116 (Homo sapiens), in the experiment with Colo 829 (Homo sapiens) and with MCF7 (Homo sapiens) was > 500 µM in each case.

With “((2S,3S,4R,5R)-5-(2-amino-6-chloro-9H-purin-9-yl)-4-hydroxy-3-methyltetrahydrofuran-2,3-diyl)dimethanol (A), ((2S,3S,4R,5R)-5-(6-amino-2-chloro-9H-purin-9-yl)-4-hydroxy-3-methyltetrahydrofuran-2,3-diyl)dimethanol (B) [LCB-1094]”, the IC50 in the experiment with BxPC-3, in the experiment with PFSK-1, in the experiment with ZR-75-1, in the experiment with HCC1143, in the experiment with HL-60 and in the experiment with 1A6 was > 500 µM in each case. Moreover, the IC50 in the experiment on NCI H1395 (NCI H1395 cell line (lung)), with OVCAR3, in the experiment with 786-O, with DLD-1, in the experiment on NCI H2052 and in the experiment on MOLT-4 (MOLT-4 cell line (acute lymphoblastic leukemia)) was > 500 µM in each case. Also, the IC50 in the experiment with 22Rv1, in the experiment on HCT 116, in the experiment with Colo 829 and with MCF7 was > 500 µM in each case.
